Laboratory results from ChEMBL document CHEMBL1157973, “ent-Trachylobane diterpenoids from Xylopia langsdorffiana” (J Nat Prod, 2006).

Key:
[1] = tested on: V79; assay: Cytotoxicity against chinese hamster V79 cells by MTT assay; format: cell-based; details: Cricetulus griseus
[2] = tested on: Hepatocyte; assay: Cytotoxicity against Wistar rat hepatocytes cells by MTT assay; format: cell-based
[3] = tested on: K562; assay: Cytotoxicity against human K562 cells; format: functional, cell-based

Compound `CC(=O)O[C@@H]1CC2[C@@](C)(C(=O)O)CCC[C@@]2(C)[C@@H]2C[C@@H]3C4C[C@@]21C[C@]43C` (stereo partly drawn) has an IC50 [1] of 224 µM, an IC50 [2] of 231 µM and an IC50 [3] of 200 µM.
